For data set [1], the target named is T1, Glucocorticoid receptor (GR) (Homo sapiens, UniProt P04150).
T1 construct: host or cells: MMTV-bla HeLa CELLSENSOR
T1 sequence (P04150 1-777): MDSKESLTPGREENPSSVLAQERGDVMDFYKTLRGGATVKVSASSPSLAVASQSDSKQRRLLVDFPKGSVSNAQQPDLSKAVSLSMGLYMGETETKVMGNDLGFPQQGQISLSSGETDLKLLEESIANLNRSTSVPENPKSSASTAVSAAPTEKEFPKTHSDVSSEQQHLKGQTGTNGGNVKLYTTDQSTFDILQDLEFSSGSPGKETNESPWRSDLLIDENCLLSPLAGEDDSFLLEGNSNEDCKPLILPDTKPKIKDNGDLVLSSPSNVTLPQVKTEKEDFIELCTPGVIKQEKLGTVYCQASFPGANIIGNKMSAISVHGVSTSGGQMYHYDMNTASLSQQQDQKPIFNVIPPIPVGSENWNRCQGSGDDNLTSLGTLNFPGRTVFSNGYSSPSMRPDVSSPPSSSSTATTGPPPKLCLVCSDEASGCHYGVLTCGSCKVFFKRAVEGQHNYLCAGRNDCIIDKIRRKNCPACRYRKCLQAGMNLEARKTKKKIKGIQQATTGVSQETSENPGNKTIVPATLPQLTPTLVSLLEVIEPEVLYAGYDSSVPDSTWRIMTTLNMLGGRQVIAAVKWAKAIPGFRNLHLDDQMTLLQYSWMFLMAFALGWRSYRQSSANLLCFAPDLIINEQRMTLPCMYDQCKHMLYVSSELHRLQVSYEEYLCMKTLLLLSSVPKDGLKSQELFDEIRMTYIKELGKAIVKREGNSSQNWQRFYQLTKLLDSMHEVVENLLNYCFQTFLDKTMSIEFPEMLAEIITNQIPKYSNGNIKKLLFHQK
The data set is described as follows: Glucocorticoid receptor transactivation, MMTV-bla HeLa CELLSENSOR β-lactamase reporter, agonist mode. The format is cell-based. The settings on record: for % Activation at 100 nM: GR, 5 hours; for greater potency compared to the parent molecule cortisol: GR signaling pathway, relative to cortisol. As for the experimental part:
Glucocorticoid receptor (GR) activation potency was assessed using a HeLa cell line containing the MMTV-bla reporter (MMTV-bla HeLa CELLSENSOR®, Invitrogen Corp., Carlsbad, Calif.). This cell line was stably transfected with an expression construct containing β-lactamase cDNA under control of the MMTV response element previously identified as a glucocorticoid receptor response element. […] All assays were performed as 10-point dose responses using a half log-fold dilution series starting with a maximum compound concentration of 100 nM. The compounds were incubated for 5 hours. The activation of endogenous GR leads to expression of the reporter β-lactamase which is detected by the conversion of a FRET substrate in a ratiometric assay format. This functional assay allows for measurement of receptor agonism by compounds and can be used to determine compound potency and selectivity. Assay reproducibility was determined by calculating Z′ values for untreated versus maximum stimulation.

For data set [2] the following is noted: patients, applied locally via eye drops, compared to dexamethasone, prednisolone and fluorometholone; cited from earlier work.
Data set [3] has as its target T2, fusion protein GAL4(DBD)-MR(LBD) (Homo sapiens, UniProt P08235).
T2 sequence (P08235 726-964 limits assumed): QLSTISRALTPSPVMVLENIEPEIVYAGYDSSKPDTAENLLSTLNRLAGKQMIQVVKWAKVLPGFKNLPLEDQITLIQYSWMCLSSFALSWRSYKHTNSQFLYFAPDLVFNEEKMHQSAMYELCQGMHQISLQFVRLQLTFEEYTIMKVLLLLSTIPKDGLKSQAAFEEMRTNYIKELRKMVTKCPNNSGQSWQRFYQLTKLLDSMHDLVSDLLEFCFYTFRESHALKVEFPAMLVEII
Kind of data set: Mineralocorticoid receptor transactivation, UAS-bla HEK 293T CELLSENSOR β-lactamase reporter, agonist mode. The settings on record: for % Activation at 100 nM: MR, UAS-bla HEK 293T, agonist mode, 16 hours. The format is cell-based. As for the experimental part: Mineralocorticoid receptor (MR) activation potency was assessed using a HEK 293T cell line containing the UAS-bla reporter (UAS-bla HEK 293T CELLSENSOR®). This cell line was stably cotransfected with an expression construct containing β-m lactamase cDNA under control of the GAL4 Upstream Activator Sequence (UAS) and another expression construct encoding for the fusion protein GAL4(DBD)-MR(LBD). […] All assays were performed as 10-point dose responses using a half log-fold dilution series starting with a maximum compound concentration of 100 nM. The compounds were incubated for 16 hours. The activation of the fusion protein GAL4(DBD)-MR(LBD) leads to expression of the reporter β-lactamase which is detected by the conversion of a FRET substrate in a ratiometric assay format. This functional assay allows for measurement of receptor agonism by compounds and can be used to determine compound potency and selectivity. Assay reproducibility was determined by calculating Z′ values for untreated versus maximum stimulation.

Turning to `C[C@]12CCC(=O)C=C1CC[C@@H]1[C@@H]2[C@@H](O)C[C@@]2(C)[C@H]1CC[C@]2(O)C(=O)CO`, in data set [1] (MMTV-bla HeLa, agonist mode), the “% Activation at 100 nM” value is listed as 43%.

As for `C[C@]12CCC(=O)C=C1CC[C@@H]1[C@@H]2[C@@H](O)C[C@@]2(C)[C@H]1CC[C@]2(OC(=O)c1ccccc1)C(=O)CO` [cortisol 17-benzoate], the “greater potency compared to the parent molecule cortisol” value in data set [1] is recorded as “about 30 fold”. Regarding `C[C@]12CCC(=O)C=C1CC[C@@H]1[C@@H]2[C@@H](O)C[C@@]2(C)[C@H]1CC[C@]2(OC(=O)C1CCCC1)C(=O)CO` [cortisol 17-cyclopentanoate], the “greater potency compared to the parent molecule cortisol” value in data set [1] was “about 30 fold”. `C[C@]12CCC(=O)C=C1CC[C@@H]1[C@@H]2[C@@H](O)C[C@@]2(C)[C@H]1CC[C@]2(O)C(=O)CO` [cortisol]: the “effect on intraocular pressure” value in data set [2] is “minimal effect on intraocular pressure”.

In the case of `C[C@]12CCC(=O)C=C1CC[C@@H]1[C@@H]2[C@@H](O)C[C@@]2(C)[C@H]1CC[C@]2(OC(=O)CCS(=O)(=O)c1ccccc1)C(=O)CO` [drawing 14], in data set [1] (MMTV-bla HeLa, agonist mode), the “% Activation at 100 nM” value is given as 17%. This compound also yielded an EC50 in data set [1] (MMTV-bla HeLa, agonist mode, 5 hours incubation, max concentration 100 nM, one experiment in duplicate) of over 100 nM.

For `C[C@]12CCC(=O)C=C1CC[C@@H]1[C@@H]2[C@@H](O)C[C@@]2(C)[C@H]1CC[C@]2(OC(=O)Cc1ccc(Br)cc1)C(=O)CO` [drawing 15], in data set [1] (MMTV-bla HeLa, agonist mode), the “% Activation at 100 nM” value came out at 0%. For `C[C@]12CCC(=O)C=C1CC[C@@H]1[C@@H]2[C@@H](O)C[C@@]2(C)[C@H]1CC[C@]2(OC(=O)CCS(=O)(=O)c1ccccc1)C(=O)CO` [drawing 18], in data set [3], a half-maximal response (EC50) required 3.48 nM and the “% Activation at 100 nM” value is listed as 79%. Consider `C[C@]12CCC(=O)C=C1CC[C@@H]1[C@@H]2[C@@H](O)C[C@@]2(C)[C@H]1CC[C@]2(OC(=O)Cc1ccc(Br)cc1)C(=O)CO` [drawing 19], for which, in data set [3], a half-maximal effect (EC50) was put at 5.53 nM and the “% Activation at 100 nM” value came out at 77%.

Broadly, the EC50 is the concentration at which the effect is half-maximal. A higher EC50 goes with weaker potency.

Values taken from patent publication US10493082B2, “4-pregenen-11β-17-21-triol-3,20-dione derivatives” (Allergan, Inc., priority 2011, dated 2019).
